According to ChEMBL document CHEMBL1201862, “PubChem BioAssay data set” (2004):
Activity calls are given as the source filed them.

Experiments:
[1] = system: Streptococcus sp. 'group A'; assay: growth inhibition of control SK(-) GAS strain, dose response, counter-screen for streptokinase expression inhibitor project, luminescence, kanamycin, BacTiterGlo, confirmation (AID 1900); assay type: functional, organism-based
Streptococcus = assay: Group A Streptococcus viability loss, dose response, counter-screen for streptokinase expression inhibitor project, luminescence, BacTiterGlo (AID 1915); assay type: functional, organism-based;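 further: potency for reduction of bacterial viability or growth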
[2] = molecular target: T1, Sentrin-specific protease 7 (Homo sapiens, UniProt Q9BQF6); assay type: functional;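 further: Luminescence-based dose-response confirmation of ultra-high-throughput screening hits, measuring inhibition of SENP7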
T1 sequence (Q9BQF6 whole entry): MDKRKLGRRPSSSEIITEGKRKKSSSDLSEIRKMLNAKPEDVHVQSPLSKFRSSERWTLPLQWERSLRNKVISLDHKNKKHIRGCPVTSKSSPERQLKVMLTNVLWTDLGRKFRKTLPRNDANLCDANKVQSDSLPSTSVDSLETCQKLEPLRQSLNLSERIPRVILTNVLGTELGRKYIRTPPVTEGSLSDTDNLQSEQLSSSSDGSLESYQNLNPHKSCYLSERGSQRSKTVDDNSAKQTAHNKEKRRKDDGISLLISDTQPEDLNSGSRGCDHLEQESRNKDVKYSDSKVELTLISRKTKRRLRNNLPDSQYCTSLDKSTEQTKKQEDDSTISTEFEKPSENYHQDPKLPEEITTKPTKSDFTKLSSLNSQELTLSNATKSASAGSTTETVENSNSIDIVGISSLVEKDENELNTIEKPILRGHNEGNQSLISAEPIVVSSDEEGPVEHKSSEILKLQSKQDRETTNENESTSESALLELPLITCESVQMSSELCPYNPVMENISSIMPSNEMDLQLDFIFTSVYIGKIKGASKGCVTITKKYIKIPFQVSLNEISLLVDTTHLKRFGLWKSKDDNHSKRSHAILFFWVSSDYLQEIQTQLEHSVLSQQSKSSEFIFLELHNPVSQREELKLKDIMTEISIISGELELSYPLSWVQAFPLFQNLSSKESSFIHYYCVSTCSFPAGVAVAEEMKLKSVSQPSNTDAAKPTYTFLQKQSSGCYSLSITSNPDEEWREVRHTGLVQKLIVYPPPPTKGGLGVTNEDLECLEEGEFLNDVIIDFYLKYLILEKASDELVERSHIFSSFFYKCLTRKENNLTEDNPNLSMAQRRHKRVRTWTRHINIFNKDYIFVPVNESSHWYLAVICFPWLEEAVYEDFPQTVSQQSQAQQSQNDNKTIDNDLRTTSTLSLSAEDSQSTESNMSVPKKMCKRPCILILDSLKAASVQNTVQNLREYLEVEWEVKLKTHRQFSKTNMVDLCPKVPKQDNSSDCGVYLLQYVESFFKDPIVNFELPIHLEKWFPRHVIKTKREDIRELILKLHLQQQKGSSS

[3] = molecular target: T2, Apoptotic protease-activating factor 1 (Homo sapiens, UniProt O14727); assay type: functional
T2 sequence (O14727 whole entry): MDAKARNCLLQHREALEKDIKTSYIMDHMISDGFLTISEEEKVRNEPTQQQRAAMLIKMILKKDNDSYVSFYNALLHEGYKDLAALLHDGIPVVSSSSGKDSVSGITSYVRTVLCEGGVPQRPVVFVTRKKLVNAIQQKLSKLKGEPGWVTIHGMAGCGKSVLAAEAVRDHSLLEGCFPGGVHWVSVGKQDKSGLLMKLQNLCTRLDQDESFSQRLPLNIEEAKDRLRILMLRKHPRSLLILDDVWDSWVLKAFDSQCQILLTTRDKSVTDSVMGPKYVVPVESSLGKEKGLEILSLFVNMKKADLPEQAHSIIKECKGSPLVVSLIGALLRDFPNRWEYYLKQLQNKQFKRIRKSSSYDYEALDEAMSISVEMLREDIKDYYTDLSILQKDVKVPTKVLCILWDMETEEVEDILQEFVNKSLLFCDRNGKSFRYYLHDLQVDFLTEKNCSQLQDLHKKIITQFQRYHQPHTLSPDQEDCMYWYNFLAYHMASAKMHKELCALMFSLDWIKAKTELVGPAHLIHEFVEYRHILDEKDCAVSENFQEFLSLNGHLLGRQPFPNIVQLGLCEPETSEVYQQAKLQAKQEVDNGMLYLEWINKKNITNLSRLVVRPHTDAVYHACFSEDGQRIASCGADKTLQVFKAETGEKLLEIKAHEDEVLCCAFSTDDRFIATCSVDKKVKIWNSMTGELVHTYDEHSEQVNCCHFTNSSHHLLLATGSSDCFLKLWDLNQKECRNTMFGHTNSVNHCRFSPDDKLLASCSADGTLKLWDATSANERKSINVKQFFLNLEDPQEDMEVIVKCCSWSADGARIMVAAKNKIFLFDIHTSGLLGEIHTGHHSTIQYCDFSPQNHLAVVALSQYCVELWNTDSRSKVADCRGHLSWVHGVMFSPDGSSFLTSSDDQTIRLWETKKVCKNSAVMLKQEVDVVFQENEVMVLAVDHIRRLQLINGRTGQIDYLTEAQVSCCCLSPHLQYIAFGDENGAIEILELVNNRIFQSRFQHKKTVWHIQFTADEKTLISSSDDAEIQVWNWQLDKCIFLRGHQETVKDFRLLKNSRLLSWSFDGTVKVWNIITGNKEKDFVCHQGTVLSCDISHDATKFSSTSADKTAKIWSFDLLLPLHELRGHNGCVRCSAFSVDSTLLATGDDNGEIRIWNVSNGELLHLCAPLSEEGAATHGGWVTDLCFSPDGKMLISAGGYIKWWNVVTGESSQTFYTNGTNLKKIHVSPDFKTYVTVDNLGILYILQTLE

[4] = molecular target: Tyrosyl-DNA phosphodiesterase 2 (Homo sapiens, UniProt O95551); assay: human TDP2 enzyme inhibitors, dose response, biochemical, epi absorbance, IC50 (AID 743297)
Sequence of Tyrosyl-DNA phosphodiesterase 2 (O95551 whole entry): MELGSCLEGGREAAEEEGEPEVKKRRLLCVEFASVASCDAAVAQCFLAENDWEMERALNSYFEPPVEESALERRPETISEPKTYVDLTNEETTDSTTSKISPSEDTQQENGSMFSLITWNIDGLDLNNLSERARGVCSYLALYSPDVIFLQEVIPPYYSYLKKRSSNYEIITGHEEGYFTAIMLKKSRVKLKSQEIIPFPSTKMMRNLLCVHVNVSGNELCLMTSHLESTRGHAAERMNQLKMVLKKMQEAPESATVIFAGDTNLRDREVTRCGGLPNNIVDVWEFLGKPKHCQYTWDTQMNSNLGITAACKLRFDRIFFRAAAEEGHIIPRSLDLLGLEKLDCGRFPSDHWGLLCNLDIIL

For `Clc1ccc(C2=CSC3=Nc4cccc5cccc(c45)N23)cc1`, the EC50 [1] was 4.17 µM (active), the EC50 (Streptococcus) was 17.1 µM (active) and the IC50 [2] was 5.65 µM (active). For the same compound, the IC50 [3] was 17.9 µM (active) and the IC50 [4] was > 128 µM (inactive).
